Earlier results, collected in US20100080846A1, “DIPYRIDAMOLE AND […] ACID FORMULATIONS AND PROCESS FOR PREPARING SAME” (priority 2008, published 2010).

Conditions: above a pH of 4

- solubility in water: practically insoluble
SMILES: OCCN(CCO)c1nc(N2CCCCC2)c2nc(N(CCO)CCO)nc(N3CCCCC3)c2n1 [Dipyridamole, 2,6-bis-(diethanolamino)-4,8-dipiperidino-(5,4-d)-pyrimidine]
